Where two headings read alike, the source gives them in different places. Numbered stars: 1 amine (or outer) side, 2 acyl side, 3 side chain; on linkers, the order of the positions; unused ones are H or OH. Bridge positions count the residues as written; N and C are the ends. Square brackets hold non-standard residues; d marks the D form. Triazole bridges read from a SMILES are 1,4-linked. Ends that are not written are not given here. Peptide text beside a SMILES is read from it. * marks the point of attachment. Biotinyl(3aR,4R,6aS) = O=C1N[C@@H]2[C@@H](CS[C@@H]2CCCCC(=O)*)N1; NH(CH2CH2O)5CH2CO = O=C(COCCOCCOCCOCCOCCN[*:1])[*:2]; X2 = O=C(CCCCCSc1nonc1/C(=N/O)Nc1ccc(F)c(Br)c1)*; X1 = O=C(CSc1nonc1/C(=N/O)Nc1ccc(F)c(Br)c1)*; PEG8 = NCCOCCOCCOCCOCCOCCOCCOCCOCCC(=O)O; Lys(N3) = [N-]=[N+]=NCCCC[C@H](N)C(=O)O; Phe(4-F) = N[C@@H](Cc1ccc(F)cc1)C(=O)O; PEG6 = NCCOCCOCCOCCOCCOCCOCCC(=O)O; AEEEA = NCCOCCOCCOCC(=O)O; Pra = C#CC[C@H](N)C(=O)O

The record followed here is patent US12216122B2, “Compositions and methods relating to detection, inhibition, and imaging of indoleamine 2,3-dioxygenase 1 (IDO1)” (Regeneron Pharmaceuticals, Inc., priority 2019, dated 2025).

One experiment deals with T1, recombinant human IDO1 (Homo sapiens, UniProt P14902).
T1 construct: purchased BPS Biosciences 72037
T1 sequence (P14902 whole entry): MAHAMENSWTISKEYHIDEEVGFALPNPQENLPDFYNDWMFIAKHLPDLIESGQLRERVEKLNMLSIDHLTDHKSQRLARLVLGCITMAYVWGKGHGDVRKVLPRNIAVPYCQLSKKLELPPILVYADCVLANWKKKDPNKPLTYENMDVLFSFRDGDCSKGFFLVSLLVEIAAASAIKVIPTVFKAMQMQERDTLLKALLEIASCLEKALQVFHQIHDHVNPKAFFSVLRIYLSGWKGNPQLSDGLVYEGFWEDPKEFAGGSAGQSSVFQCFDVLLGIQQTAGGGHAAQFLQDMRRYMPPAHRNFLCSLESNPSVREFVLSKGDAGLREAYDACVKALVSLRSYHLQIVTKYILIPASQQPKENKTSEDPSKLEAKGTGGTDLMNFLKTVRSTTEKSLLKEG
Description: IDO1 Fluorogenic Inhibitor Screening Assay (enzyme inhibition). Type of experiment: biochemical. As for the experimental part:
The IDO1 Fluorogenic Inhibitor Screening Assay Kit (72037, BPS Biosciences) was used to measure the enzyme inhibition of human IDO1 in the presence of macrocyclic peptide ligands. IDO1 catalyzes the conversion of the essential amino acid L-tryptophan (L-Trp) to N-formylkynurenine (NFK). In the assay, the test inhibitor and enzyme were added to a sample containing L-Trp substrate. After incubation for 1 h at room temperature, 20 μL Fluorescence Solution was added and incubated at 37° C. for 4 h to produce a fluorescent product. Activity was measured by reading sample fluorescence at λ=510 nm following excitation of the reaction product at λ=400 nm.

Experiment [1] has as its target T2, IDO1 in IFNγ stimulated HeLa cells (Homo sapiens, UniProt P14902).
T2 construct: endogenous in cells; host or cells: HeLa cells stimulated with IFNγ
In words: IDO1 inhibition assay in HeLa cells stimulated with IFNγ. In kind it is cell-based. As to conditions: for inhibition at 8 µM: HeLa. As for the experimental part:
Lead compounds prioritized in the recombinant IDO1 inhibition assay were advanced to a cellular IDO1 inhibition assay.
Protocol: HeLa cells were trypsinized and diluted to a density of 2×10^5 cells/mL in cell culture medium (DMEM+10% Fetal Bovine Serum (FBS)+1% Penicillin/Streptomycin). Sterile L-tryptophan was added to the cells at a final concentration of 300 μM. IFNγ at a final concentration of 100 ng/mL was added to HeLa cells to stimulate IDO1 expression. Unstimulated HeLa cells in the absence of IFNγ were used for background subtraction. HeLa cells with or without IFNγ were plated in 96-well Greiner black assay plates at a density of 22,000 cells/well. […] 8 μL of each compound dilution were then dispensed into the Greiner black 96-well assay plate(s) containing HeLa cells in triplicate, yielding final assay compound concentrations of 8 μM serially diluted to 1.27 nM. The plates were incubated at 37° C. with 5% CO2. After 48 hours, 24 μL of 0.5 M methyl isonipecotate in DMSO were added into each well and the plates were sealed and incubated at 37° C. with 5% CO2 overnight. The resulting fluorescence was measured in a BioTek Synergy H1 plate reader with a 400 nm excitation filter and a 510 nm emission filter. The fluorescence intensity of each well was corrected for the background observed in wells with non-IFNγ-treated cells and was expressed as a fraction of the intensity observed in wells of IFNγ-treated cells with vehicle only.

Experiment [2] deals with T3, His-tagged IDO1 human recombinant protein (Homo sapiens, UniProt P14902).
T3 construct: purchased BPS Biosciences 71182
T3 sequence (P14902 whole entry): as above
In words: IDO1 ELISA (Affinity Assay): sandwich ELISA, biotinylated ligand immobilized on NEUTRAVIDIN plate. Type of experiment: binding. The protocol:
Protocol: A black 96-well NEUTRAVIDIN® Coated High Binding Capacity plate (15510, Pierce) was coated with 2 μM biotinylated macrocyclic peptide ligand in TBS (25 mM Tris-HCl, 150 mM NaCl, pH 7.6) for 2 h at room temperature. The plate was aspirated and then washed with Wash Buffer (0.05% (v/v) TWEEN® 20 in PBS, 6×). His-tagged IDO1 human recombinant protein (71182, BPS Biosciences) was serially diluted in Wash Buffer (from 200 to 0 nM) and incubated in the designated microwells for 1 h at room temperature. Microwells were aspirated and subsequently washed with Wash Buffer (11×). To detect the bound IDO1 protein, Alkaline Phosphatase (AP)-conjugated Anti-6×HIS TAG® antibody [HIS-1] (ab49746, Abcam) was prepared at 1:10,000 dilution and added to the microwells for 1 h at room temperature. The plate was aspirated and washed with Wash Buffer (5×). ATTOPHOS® AP Fluorescent Substrate System (S1000, Promega) was employed to develop the microwells. Using an excitation wavelength of 430 nm, fluorescent emission at 535 nm was recorded by Beckman Coulter DTX880 photometer. Titration curves were fit using a four-parameter regression curve fitting program to determine EC50 values.
For these assays, a dilution series of His-tagged IDO1 human recombinant protein was captured using the macrocyclic peptide ligands immobilized on a NEUTRAVIDIN®-coated plate. […] The sequences of the peptide ligands are listed in Table 1, where D-amino acids are denoted in lowercase, Me-Trp=1-methyl-L-tryptophan, and F-Phe=4-fluoro-L-phenylalanine. Chemical structures are shown below Table 1.
The D-alanine substituted, biotin-PEG3-modified macrocycles were tested in the IDO1 ELISA (Affinity assay). For these assays, a dilution series of His-tagged IDO1 human recombinant protein was captured using macrocycles immobilized on a NEUTRAVIDIN®-coated plate.
A general note: An ELISA detects its analyte on a solid surface through an enzyme-linked reagent.

Setting [3] is: Table 18, read-out: Inhibition Recombinant IDO1 IC50.
The mark [4] stands for this setting: Table 19, read-out: Inhibition Human rIDO1 IC50.
[5] abbreviates: Table 18, read-out: Inhibition HeLa IC50.
The mark [6] stands for this setting: Table 19, read-out: Inhibition HeLa cells IC50.
[7] abbreviates: read-out: % inhibition at 8 μM, HeLa, Table 17.
[8] abbreviates: N-methylated heterobiligands, PEG6 linker, read-out: IC50.
Setting [9] is: PEG linker length series, wyvay, read-out: IC50.
The mark [10] stands for this setting: Table 15, read-out: Inhibition Recombinant IDO1 IC50.
Where [11] appears, read: PEG linker length series, wyry, read-out: IC50.
[12] abbreviates: Table 17, read-out: Inhibition Recombinant IDO1 IC50.

T2 sequence (P14902 whole entry): as above

By IC50 is commonly meant the concentration needed to halve the response being measured. In the case of `CC(C)[C@H]1NC(=O)[C@@H](Cc2ccc(O)cc2)NC(=O)[C@@H](Cc2c[nH]c3ccccc23)NC(=O)[C@@H](NC(=O)COCCOCCOCCOCCOCCNC(=O)CCCCCSc2nonc2/C(=N/O)Nc2ccc(F)c(Br)c2)Cc2cn(nn2)CCCC[C@@H](C(N)=O)NC(=O)[C@@H](Cc2ccc(O)cc2)NC(=O)[C@@H](C)NC1=O` [Inh2-PEG5-wyvay] (X2-[NH(CH2CH2O)5CH2CO][Pra][dW][dY][dV][dA][dY][Lys(N3)]-NH2; triazole 2-8), the IC50 turned out to be 539 nM on recombinant human IDO1 (setting [3]), 539 nM on recombinant human IDO1 (setting [4]), 0.221 µM in experiment [1] (setting [5]) and 0.221 µM in experiment [1] (setting [6]).

With “d-Hex-Inh-PEG6-wyvay: heterobiligand with linker modified to increase lipophilicity, PEG6 ([dW][dY][dV][dA][dY]; also: d-Hex-inhibitor via PEG6 linker)”, the “Cellular IDO1 inhibition, in words” value in experiment [1] is reported as “only showed inhibition at higher concentrations”.

One may read the inhibition as the relative decrease from the control value, in per cent. For the compound `CC(C)[C@H]1NC(=O)[C@@H](Cc2ccc(O)cc2)NC(=O)[C@@H](Cc2c[nH]c3ccccc23)NC(=O)[C@@H](NC(=O)CCOCCOCCOCCOCCOCCOCCOCCOCCNC(=O)CSc2nonc2/C(=N/O)Nc2ccc(F)c(Br)c2)Cc2cn(nn2)CCCC[C@@H](C(N)=O)NC(=O)[C@@H](Cc2ccc(O)cc2)NC(=O)[C@@H](C)NC1=O` [Deprotected-Inh-PEG8-wyvay] ({X1-PEG8}-[Pra][dW][dY][dV][dA][dY][Lys(N3)]-NH2; triazole 1-7), the inhibition at 8 µM in experiment [1] (setting [7]) is 77.3%.

For the compound `CC(C)[C@H]1NC(=O)[C@@H](Cc2ccc(O)cc2)NC(=O)[C@@H](Cc2c[nH]c3ccccc23)NC(=O)[C@@H](NC(=O)CCOCCOCCOCCOCCOCCOCCNC(=O)CSc2nonc2/C(=N/O)Nc2ccc(F)c(Br)c2)Cc2cn(nn2)CCCC[C@@H](C(N)=O)NC(=O)[C@@H](Cc2ccc(O)cc2)NC(=O)[C@@H](C)NC1=O` [Inh-PEG6-wyvay] ({X1-PEG6}-[Pra][dW][dY][dV][dA][dY][Lys(N3)]-NH2; triazole 1-7), the half-inhibitory concentration (IC50) came out at 44 nM at recombinant human IDO1 (setting [8]); 265 nM on recombinant human IDO1 (setting [9]); 44 nM at recombinant human IDO1 (setting [10]); 265 nM on recombinant human IDO1 (setting [4]); 35.7 µM in experiment [1] (Table 17, cells print μM, read-out: Inhibition HeLa IC50); 35.7 µM in experiment [1] (setting [6]). For the same compound, the inhibition at 8 µM in experiment [1] (read-out: % inhibition at 8 μM, HeLa cells, Table 19) was 36.1%; in experiment [1] (setting [7]) it was 36.1%.

As usually defined, the EC50 is the concentration giving half of the maximal effect. Consider `O=C(O)CSc1nonc1/C(=N/O)Nc1ccc(F)c(Br)c1` [Inh], for which the EC50 in experiment [2] (binding analysis of VHL-linked Epitope 2 ligand, read-out: EC50) was more than 1000 nM. Besides, the half-maximal inhibitory concentration (IC50) at recombinant human IDO1 (setting [8]) came to 928 nM; on recombinant human IDO1 (setting [11]) it was 1090 nM; at recombinant human IDO1 (setting [9]), 1050 nM; at recombinant human IDO1 (setting [10]), 928 nM; at recombinant human IDO1 (setting [12]), 1090 nM; at recombinant human IDO1 (setting [3]) it was 1090 nM. The half-maximal inhibitory concentration (IC50) on recombinant human IDO1 (setting [4]) was 1050 nM; on recombinant human IDO1 (effect of linker and of protection of the inhibitor, read-out: IC50), 616 nM; on recombinant human IDO1 (linker composition series, read-out: IC50), 693 nM; in experiment [1] (Table 15, read-out: Inhibition HeLa cells IC50), 0.125 µM; in experiment [1] (Table 17, read-out: Inhibition HeLa IC50), 0.244 µM; in experiment [1] (setting [5]) it was 0.406 µM. Further, in experiment [1] (setting [6]), the concentration for half-maximal inhibition (IC50) amounted to 0.406 µM. Besides, in experiment [1] (setting [7]), the inhibition at 8 µM is 99.6%.

In the case of `O=C(O)CCCCCSc1nonc1/C(=N/O)Nc1ccc(F)c(Br)c1` [Inh2], the IC50 on recombinant human IDO1 (setting [3]) was determined as 343 nM; on recombinant human IDO1 (setting [4]), 343 nM; in experiment [1] (setting [5]), 0.997 µM; in experiment [1] (setting [6]), 0.997 µM.

For the compound `N=C(N)NCCC[C@H]1NC(=O)[C@@H](Cc2ccc(O)cc2)NC(=O)[C@@H](Cc2c[nH]c3ccccc23)NC(=O)[C@@H](NC(=O)CCOCCOCCOCCOCCOCCOCCNC(=O)CSc2nonc2/C(=N/O)Nc2ccc(F)c(Br)c2)Cc2cn(nn2)CCCC[C@@H](C(N)=O)NC(=O)[C@@H](Cc2ccc(O)cc2)NC1=O` [Inh-PEG6-wyry] ({X1-PEG6}-[Pra][dW][dY][dR][dY][Lys(N3)]-NH2; triazole 1-6), the “IDO1 inhibition potency relative to the small molecule (Inh) alone, in words” value on recombinant human IDO1 was “more than three times as potent as Inh alone”. Moreover, the IC50 on recombinant human IDO1 (setting [11]) and at recombinant human IDO1 (setting [12]) was 338 nM in each case. Further, the inhibition at 8 µM in experiment [1] (setting [7]) was 47.8%. In addition, the “Inhibition HeLa IC50 nM” value in experiment [1] (Table 17) was “no curve fit”.

As to “d-Hex-Inh-PEG5-wyvay: heterobiligand with linker modified to increase lipophilicity, PEG5 ([dW][dY][dV][dA][dY]; also: d-Hex-inhibitor via PEG5 linker)”, in experiment [1], the “Cellular IDO1 inhibition, in words” value is “good inhibition/cell penetration”.

For `N=C(N)NCCC[C@H]1NC(=O)[C@H](Cc2ccc(F)cc2)NC(=O)[C@@H](Cc2c[nH]cn2)NC(=O)[C@@H](CO)NC(=O)[C@@H](CC(N)=O)NC(=O)[C@@H](NC(=O)COCCOCCOCCNC(=O)CCCC[C@H]2SC[C@H]3NC(=O)N[C@H]32)Cc2cn(nn2)CCCC[C@@H](C(N)=O)NC1=O` [nsh(F-Phe)r, biotin-PEG3-Cy(nsh(F-Phe)r)] ({Biotinyl(3aR,4R,6aS)-AEEEA}-[Pra][dN][dS][dH][Phe(4-F)][dR][Lys(N3)]-NH2; triazole 1-7), the EC50 in experiment [2] (2 μM biotinylated macrocycle immobilized, human IDO1 titrated 200 to 0 nM, read-out: EC50, sandwich ELISA for human IDO1 protein against biotin-PEG3-modified macrocycle) stood at 68 nM.

For “d-Hex-Inh-PEG4-wyvay: heterobiligand with linker modified to increase lipophilicity, PEG4 ([dW][dY][dV][dA][dY]; also: d-Hex-inhibitor via PEG4 linker)”, the “Cellular IDO1 inhibition, in words” value in experiment [1] was “only showed inhibition at higher concentrations”.
